Data: the NIST ThermoML archive (doi:10.1021/je050389b)

Assay: xn = mol fraction of the nth substance listed
Conditions: Liquid; for viscosity: 100.5 kPa; for mass density: 101 kPa

CCOC(=O)Cc1ccccc1 [ethyl phenylacetate] + CCO
Conditions | mass density, 288.15 K [kg/m3] | mass density, 298.15 K [kg/m3] | mass density, 308.15 K [kg/m3] | mass density, 318.15 K [kg/m3] | viscosity, 288.15 K [mPa·s] | viscosity, 298.15 K [mPa·s] | viscosity, 308.15 K [mPa·s] | viscosity, 318.15 K [mPa·s]
x1 = 0.05 | 825.34 | 816.54 | 807.65 | 798.61 | 1.366 | 1.127 | 0.947 | 0.798
x1 = 0.1 | 852 | 843.05 | 834 | 824.82 | 1.393 | 1.151 | 0.967 | 0.823
x1 = 0.15 | 874.72 | 865.65 | 856.49 | 847.17 | 1.447 | 1.195 | 1.003 | 0.855
x1 = 0.2 | 894.42 | 885.25 | 875.99 | 866.6 | 1.513 | 1.244 | 1.044 | 0.891
x1 = 0.25 | 911.6 | 902.37 | 893.03 | 883.57 | 1.584 | 1.298 | 1.089 | 0.93
x1 = 0.3 | 926.72 | 917.42 | 908.03 | 898.52 | 1.663 | 1.357 | 1.138 | 0.971
x1 = 0.35 | 940.14 | 930.79 | 921.36 | 911.82 | 1.742 | 1.418 | 1.188 | 1.012
x1 = 0.4 | 952.17 | 942.79 | 933.33 | 923.77 | 1.822 | 1.479 | 1.239 | 1.055
x1 = 0.45 | 963.02 | 953.61 | 944.13 | 934.56 | 1.904 | 1.543 | 1.292 | 1.099
x1 = 0.5 | 972.79 | 963.35 | 953.86 | 944.28 | 1.989 | 1.61 | 1.344 | 1.145
x1 = 0.55 | 981.67 | 972.24 | 962.73 | 953.16 | 2.076 | 1.677 | 1.399 | 1.191
x1 = 0.6 | 989.81 | 980.37 | 970.86 | 961.29 | 2.164 | 1.747 | 1.455 | 1.238
x1 = 0.65 | 997.27 | 987.81 | 978.31 | 968.75 | 2.255 | 1.821 | 1.513 | 1.286
x1 = 0.7 | 1004.13 | 994.68 | 985.19 | 975.65 | 2.348 | 1.895 | 1.571 | 1.336
x1 = 0.75 | 1010.49 | 1001.03 | 991.56 | 982.04 | 2.446 | 1.974 | 1.635 | 1.387
x1 = 0.8 | 1016.36 | 1006.93 | 997.48 | 987.98 | 2.555 | 2.053 | 1.702 | 1.441
x1 = 0.85 | 1021.84 | 1012.41 | 1002.97 | 993.53 | 2.672 | 2.14 | 1.772 | 1.498
x1 = 0.9 | 1026.95 | 1017.55 | 1008.14 | 998.73 | 2.79 | 2.23 | 1.847 | 1.558
x1 = 0.95 | 1031.75 | 1022.36 | 1012.99 | 1003.61 | 2.919 | 2.33 | 1.914 | 1.605
x1 = 1 | 1036.35 | 1026.96 | 1017.6 | 1008.26 | 3.002 | 2.384 | 1.948 | 1.624
